From patent publication US6479435B1, “Diaryl ethers and processes for their preparation and herbicidal and desiccant compositions containing them” (ISK Americas Incorporated, priority 1997, dated 2002)

Assays:
Format in all cases: in vivo
[1] = test system: field corn (Zea mays L., var. Dekalb 535, CORN); assay: Pre-emerge greenhouse test, crop damage rating; settings: 14 days after application, rating scale 0-100
Description: (§1) A standard greenhouse herbicide activity screening system was used to evaluate the herbicidal efficacy and crop safety of these test compounds. Six broadleaf weed species including redroot pigweed (Amaranthus retroflexus, AMARE), velvetleaf (Abutilon theophrasti, ABUTH), sicklepod (Cassia obtusifolia, CASOB), ivyleaf morningglory (Ipomoea hederacea, IPOHE), lambsquarters (Chenopodium album, CHEAL) and common ragweed (Ambrosia artemisiifolia L., AMBEL) were used as test species. Four grass weed species including green foxtail (Setaria viridis, SETVI), barnyardgrass (Echinochloa crusgalli, ECHCG), Johnsongrass (Sorghum halepense, SORHA), and large crabgrass (Digitaria sanguinalis, DIGSA) were also used. In addition, three crop species, field corn (Zea mays L., var. Dekalb 535, CORN), soybean (Glycine max L., var. Pella 86, SOY), and upland rice (Oryza sp., var.Tebonnet, RICE) were included.
(§2) All plants were grown in 10 cm square plastic pots which were filled with a sandy loam soil mix. For preemerge tests, seeds were planted one day prior to application of the test compounds. Immediately after application, test units of the pre-emerge applications were watered at the soil surface to incorporate the test materials. Subsequently, these test units were bottom-watered.
(§3) All test compounds were dissolved in acetone and applied to the test units in a volume of 187 l/ha. Test materials were applied at rates ranging from 125 g ai/ha to 1000 g ai/ha using a track sprayer equipped with a TJ8001E even flow flat fan spray nozzle. Plants were arranged on a shelf so that the top of the canopy (post-emerge) or top of the soil surface (pre-emerge) was 40-45 cm below the nozzle. Pressurized air was used to force the test solution through the nozzle as it was mechanically advanced (via electrically driven chain drive) over the top of all test plants/pots. This application simulates a typical commercial field herbicide application.
(§4) At 14 days after application of the test materials, phytotoxicity ratings were recorded. A rating scale of 0-100 was used as previously described in Research Methods in Weed Science, 2nd edition, B. Truelove, Ed., Southern Weed Science Society, Auburn University, Auburn, Ala., 1977. Briefly, “0” corresponds to no damage and “100” corresponds to complete death of all plants in the test unit. This scale was used both to determine efficacy against weed species and damage to crop species. Herbicide activity data for various compounds of this invention, which are shown by compound number in Tables 1-9, are shown in Tables 13 and 14.

[2] = test system: upland rice (Oryza sp., var.Tebonnet, RICE); assay: Pre-emerge greenhouse test, crop damage rating; settings: 14 days after application, rating scale 0-100
Description: as §1, §2, §3, §4

[3] = test system: soybean (Glycine max L., var. Pella 86, SOY); assay: Pre-emerge greenhouse test, crop damage rating; settings: 14 days after application, rating scale 0-100
Description: as §1, §2, §3, §4

[4] = test system: large crabgrass (Digitaria sanguinalis, DIGSA); assay: Post-emerge greenhouse herbicide test, phytotoxicity rating; settings: 14 days after application
Description: as §1, §3
(§5) In the post-emerge test, a commercial non-ionic surfactant was also included (0.25% v/v) to enhance wetting of the leaf surfaces Qf target plants at rates ranging from 63 g ai/ha to 1000 g ai/ha. For post-emerge tests, seeds were planted 8-21 days prior to the test to allow emergence and good foliage development prior to application of the test substances. At the time of the post-emerge application, plants of all species were usually at the 2-3 leaf stage of development. Post-emerge test units were always bottom-watered.
as §4

[5] = test system: redroot pigweed (Amaranthus retroflexus, AMARE); assay: as above; settings: 14 days after application
Description: as §1, §3, §5, §4

[6] = test system: sicklepod (Cassia obtusifolia, CASOB); assay: as above; settings: 14 days after application
Description: as §1, §3, §5, §4

[7] = test system: ivyleaf morningglory (Ipomoea hederacea, IPOHE); assay: as above; settings: 14 days after application
Description: as §1, §3, §5, §4

[8] = test system: lambsquarters (Chenopodium album, CHEAL); assay: as above; settings: 14 days after application
Description: as §1, §3, §5, §4

[9] = test system: Johnsongrass (Sorghum halepense, SORHA); assay: as above; settings: 14 days after application
Description: as §1, §3, §5, §4

[10] = test system: green foxtail (Setaria viridis, SETVI); assay: as above; settings: 14 days after application
Description: as §1, §3, §5, §4

[11] = test system: barnyardgrass (Echinochloa crusgalli, ECHCG); assay: as above; settings: 14 days after application
Description: as §1, §3, §5, §4

[12] = test system: velvetleaf (Abutilon theophrasti, ABUTH); assay: as above; settings: 14 days after application
Description: as §1, §3, §5, §4

[13] = test system: field corn (Zea mays L., var. Dekalb 535, CORN); assay: Post-emerge greenhouse test, crop damage rating; settings: 14 days after application
Description: as §1, §3, §5, §4

[14] = test system: upland rice (Oryza sp., var.Tebonnet, RICE); assay: Post-emerge greenhouse test, crop damage rating; settings: 14 days after application
Description: as §1, §3, §5, §4

[15] = test system: soybean (Glycine max L., var. Pella 86, SOY); assay: Post-emerge greenhouse test, crop damage rating; settings: 14 days after application
Description: as §1, §3, §5, §4

[16] = test system: large crabgrass (Digitaria sanguinalis, DIGSA); assay: Pre-emerge greenhouse herbicide test, phytotoxicity rating; settings: 14 days after application, rating scale 0-100
Description: as §1, §2, §3, §4

[17] = test system: redroot pigweed (Amaranthus retroflexus, AMARE); assay: as above; settings: 14 days after application, rating scale 0-100
Description: as §1, §2, §3, §4

[18] = test system: sicklepod (Cassia obtusifolia, CASOB); assay: as above; settings: 14 days after application, rating scale 0-100
Description: as §1, §2, §3, §4

[19] = test system: ivyleaf morningglory (Ipomoea hederacea, IPOHE); assay: as above; settings: 14 days after application, rating scale 0-100
Description: as §1, §2, §3, §4

[20] = test system: lambsquarters (Chenopodium album, CHEAL); assay: as above; settings: 14 days after application, rating scale 0-100
Description: as §1, §2, §3, §4

[21] = test system: Johnsongrass (Sorghum halepense, SORHA); assay: as above; settings: 14 days after application, rating scale 0-100
Description: as §1, §2, §3, §4

[22] = test system: green foxtail (Setaria viridis, SETVI); assay: as above; settings: 14 days after application, rating scale 0-100
Description: as §1, §2, §3, §4

[23] = test system: barnyardgrass (Echinochloa crusgalli, ECHCG); assay: as above; settings: 14 days after application, rating scale 0-100
Description: as §1, §2, §3, §4

[24] = test system: velvetleaf (Abutilon theophrasti, ABUTH); assay: as above; settings: 14 days after application, rating scale 0-100
Description: as §1, §2, §3, §4

For O=c1cc2n(c(=O)n1-c1cc(Oc3ncccn3)c(Cl)cc1F)CCC2 [Compound 5-12], the “crop damage rating CORN” value ([1]; 125 g ai/ha) was 10, the “crop damage rating CORN” value ([1]; 500 g ai/ha) was 40 and the “crop damage rating RICE” value ([2]; 125 g ai/ha) was 60. The “crop damage rating RICE” value ([2]; 500 g ai/ha) was 100, the “crop damage rating SOY” value ([3]; 125 g ai/ha) was 40 and the “crop damage rating SOY” value ([3]; 500 g ai/ha) was 80. The “DIGSA phytotoxicity rating (0-100)” value ([4]; 63 g al/ha) was 0, the “DIGSA phytotoxicity rating (0-100)” value ([4]; 500 g al/ha) was 40 and the “AMARE phytotoxicity rating (0-100)” value ([5]; 63 g al/ha) was 80. The “AMARE phytotoxicity rating (0-100)” value ([5]; 500 g al/ha) was 40, the “CASOB phytotoxicity rating (0-100)” value ([6]; 63 g al/ha) was 10 and the “CASOB phytotoxicity rating (0-100)” value ([6]; 500 g al/ha) was 50. The “IPOHE phytotoxicity rating (0-100)” value ([7]; 63 g al/ha) was 40, the “IPOHE phytotoxicity rating (0-100)” value ([7]; 500 g al/ha) was 30 and the “CHEAL phytotoxicity rating (0-100)” value ([8]; 63 g al/ha) was 60. The “CHEAL phytotoxicity rating (0-100)” value ([8]; 500 g al/ha) was 75, the “SORHA phytotoxicity rating (0-100)” value ([9]; 63 g al/ha) was 0 and the “SORHA phytotoxicity rating (0-100)” value ([9]; 500 g al/ha) was 20. The “SETVI phytotoxicity rating (0-100)” value ([10]; 63 g al/ha) was 0, the “SETVI phytotoxicity rating (0-100)” value ([10]; 500 g al/ha) was 50 and the “ECHCG phytotoxicity rating (0-100)” value ([11]; 63 g al/ha) was 0. The “ECHCG phytotoxicity rating (0-100)” value ([11]; 500 g al/ha) was 40, the “ABUTH phytotoxicity rating (0-100)” value ([12]; 63 g al/ha) was 60 and the “ABUTH phytotoxicity rating (0-100)” value ([12]; 500 g al/ha) was 95. The “CORN crop damage rating (0-100)” value ([13]; 63 g al/ha) was 0, the “CORN crop damage rating (0-100)” value ([13]; 500 g al/ha) was 20 and the “RICE crop damage rating (0-100)” value ([14]; 63 g al/ha) was 0. The “RICE crop damage rating (0-100)” value ([14]; 500 g al/ha) was 70, the “SOY crop damage rating (0-100)” value ([15]; 63 g al/ha) was 50 and the “SOY crop damage rating (0-100)” value ([15]; 500 g al/ha) was 100. The “phytotoxicity rating DIGSA” value ([16]; 125 g ai/ha) was 100, the “phytotoxicity rating DIGSA” value ([16]; 500 g ai/ha) was 100 and the “phytotoxicity rating AMARE” value ([17]; 125 g ai/ha) was 100. For the same compound, the “phytotoxicity rating AMARE” value ([17]; 500 g ai/ha) was 100, the “phytotoxicity rating CASOB” value ([18]; 125 g ai/ha) was 50 and the “phytotoxicity rating CASOB” value ([18]; 500 g ai/ha) was 100. For the same compound, the “phytotoxicity rating IPOHE” value ([19]; 125 g ai/ha) was 80, the “phytotoxicity rating IPOHE” value ([19]; 500 g ai/ha) was 100 and the “phytotoxicity rating CHEAL” value ([20]; 125 g ai/ha) was 100. The “phytotoxicity rating CHEAL” value ([20]; 500 g ai/ha) was 100, the “phytotoxicity rating SORHA” value ([21]; 125 g ai/ha) was 40 and the “phytotoxicity rating SORHA” value ([21]; 500 g ai/ha) was 100. The “phytotoxicity rating SETVI” value ([22]; 125 g ai/ha) was 100, the “phytotoxicity rating SETVI” value ([22]; 500 g ai/ha) was 100 and the “phytotoxicity rating ECHCG” value ([23]; 125 g ai/ha) was 20. For the same compound, the “phytotoxicity rating ECHCG” value ([23]; 500 g ai/ha) was 100, the “phytotoxicity rating ABUTH” value ([24]; 125 g ai/ha) was 100 and the “phytotoxicity rating ABUTH” value ([24]; 500 g ai/ha) was 100.
